In patent publication US9120770B2, “Substituted pyridine and pyrazine compounds as PDE4 inhibitors” (DART NEUROSCIENCE (CAYMAN) LTD., priority 2013, dated 2015):

Target: PDE4D3 (Homo sapiens, UniProt Q08499)
Sequence (Q08499 1-673 isoform Q08499-2): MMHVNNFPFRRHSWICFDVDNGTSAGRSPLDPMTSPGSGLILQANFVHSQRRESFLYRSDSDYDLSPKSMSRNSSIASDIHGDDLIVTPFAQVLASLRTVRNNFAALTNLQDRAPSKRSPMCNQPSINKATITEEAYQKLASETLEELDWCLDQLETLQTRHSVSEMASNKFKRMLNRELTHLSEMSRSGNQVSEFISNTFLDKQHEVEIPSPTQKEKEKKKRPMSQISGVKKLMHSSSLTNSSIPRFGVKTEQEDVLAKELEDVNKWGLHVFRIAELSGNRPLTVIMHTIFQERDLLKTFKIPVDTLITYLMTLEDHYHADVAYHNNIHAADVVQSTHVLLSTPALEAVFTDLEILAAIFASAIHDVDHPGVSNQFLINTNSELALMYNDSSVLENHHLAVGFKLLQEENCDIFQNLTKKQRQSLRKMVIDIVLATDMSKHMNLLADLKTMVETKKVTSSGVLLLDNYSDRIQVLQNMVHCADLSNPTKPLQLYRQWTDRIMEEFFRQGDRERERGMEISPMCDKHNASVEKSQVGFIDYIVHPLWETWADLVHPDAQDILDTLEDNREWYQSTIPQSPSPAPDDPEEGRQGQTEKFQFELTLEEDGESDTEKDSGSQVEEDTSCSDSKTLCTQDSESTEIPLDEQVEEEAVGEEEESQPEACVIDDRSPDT

SMILES	EC50 [nM]
CNc1ncc(Cc2cnc(OC(F)F)c(-c3cccc(Cl)c3)c2)cn1 [Example 93, 5-{[5-(3-Chlorophenyl)-6-(difluoromethoxy)pyridin-3-yl]methyl}-N-methylpyrimidin-2-amine]	< 100
FC(F)Oc1ncc(Cc2cnc(NCC(F)(F)F)nc2)cc1-c1cccc(Cl)c1 [Example 94, 5-{[5-(3-Chlorophenyl)-6-(difluoromethoxy)pyridin-3-yl]methyl}-N-(2,2,2-trifluoroethyl)pyrimidin-2-amine]	100 to 1000
COc1ncc(Cc2cnoc2)nc1-c1cccc(Cl)c1 [Example 95, 3-(3-Chlorophenyl)-2-methoxy-5-(1,2-oxazol-4-ylmethyl)pyrazine]	< 100
COc1ncc(Cc2cnoc2)cc1-c1cccc(Cl)c1 [Example 96, 3-(3-Chlorophenyl)-2-methoxy-5-(1,2-oxazol-4-ylmethyl)pyridine]	100 to 1000
FC(F)Oc1ncc(Cc2cnoc2)cc1-c1cccc(Cl)c1 [Example 97, 3-(3-Chlorophenyl)-2-(difluoromethoxy)-5-(1,2-oxazol-4-ylmethyl)pyridine]	100 to 1000
COc1ncc(Cc2c(C)noc2C)nc1-c1cccc(Cl)c1 [Example 98, 3-(3-Chlorophenyl)-5-[(dimethyl-1,2-oxazol-4-yl)methyl]-2-methoxypyrazine]	1000 to 10000
Cc1noc(C)c1Cc1cnc(OC(F)F)c(-c2cccc(Cl)c2)c1 [Example 99, 3-(3-Chlorophenyl)-2-(difluoromethoxy)-5-[(dimethyl-1,2-oxazol-4-yl)methyl]pyridine]	1000 to 10000
COC(=O)Cc1ccc(Cc2cnc(OC(F)F)c(-c3cccc(Cl)c3)c2)cc1 [Example 100, Methyl 2-(4-{[5-(3-chlorophenyl)-6-(difluoromethoxy)pyridin-3-yl]methyl}phenyl)acetate]	< 100
CCOC(=O)C1(c2ccc(Cc3cnc(OC(F)F)c(-c4cccc(Cl)c4)c3)cc2)CC1 [Example 101, Ethyl 1-(4-{[5-(3-chlorophenyl)-6-(difluoromethoxy)pyridin-3-yl]methyl}phenyl)cyclopropane-1-carboxylate]	1000 to 10000
FC(F)Oc1ncc(Cc2ccc(OCC3CC3)nc2)cc1-c1cccc(Cl)c1 [Example 102, 3-(3-Chlorophenyl)-5-{[6-(cyclopropylmethoxy)pyridin-3-yl]methyl}-2-(difluoromethoxy)pyridine]	100 to 1000
CCOc1ncc(Cc2ccc(C#N)nc2)nc1-c1cccc(OC(F)F)c1 [Example 103, 5-({6-[3-(Difluoromethoxy)phenyl]-5-ethoxypyrazin-2-yl}methyl)pyridine-2-carbonitrile]	< 100
CCOc1ncc(Cc2cnc(N)nc2)nc1-c1cccc(OC(F)F)c1 [Example 104, 5-({6-[3-(Difluoromethoxy)phenyl]-5-ethoxypyrazin-2-yl}methyl)pyrimidin-2-amine]	< 100
CCOc1ncc(Cc2cnc(N)nc2)nc1-c1cccc(Cl)c1 [Example 105, 5-{[6-(3-Chlorophenyl)-5-ethoxypyrazin-2-yl]methyl}pyrimidin-2-amine]	< 100
COc1ncc(Cc2cnc(N)nc2)nc1-c1cccc(OC(F)F)c1 [Example 106, 5-({6-[3-(Difluoromethoxy)phenyl]-5-methoxypyrazin-2-yl}methyl)pyrimidin-2-amine]	< 100
COc1ncc(Cc2cnc(C#N)nc2)nc1-c1cccc(OC(F)F)c1 [Example 107, 5-({6-[3-(Difluoromethoxy)phenyl]-5-methoxypyrazin-2-yl}methyl)pyrimidine-2-carbonitrile]	< 100
CCOc1ncc(Cc2cnc(C#N)nc2)nc1-c1cccc(Cl)c1 [Example 108, 5-{[6-(3-Chlorophenyl)-5-ethoxypyrazin-2-yl]methyl}pyrimidine-2-carbonitrile]	100 to 1000
FC(F)Oc1ncc(Cc2ccccn2)cc1-c1cccc(Cl)c1 [Example 109, 3-(3-Chlorophenyl)-2-(difluoromethoxy)-5-(pyridin-2-ylmethyl)pyridine]	100 to 1000
FC(F)Oc1ncc(Cc2cnccn2)cc1-c1cccc(Cl)c1 [Example 110, 2-{[5-(3-Chlorophenyl)-6-(difluoromethoxy)pyridin-3-yl]methyl}pyrazine]	< 100
Nc1ccc(Cc2cnc(OC(F)F)c(-c3cccc(Cl)c3)c2)nn1 [Example 111, 6-{[5-(3-Chlorophenyl)-6-(difluoromethoxy)pyridin-3-yl]methyl}pyridazin-3-amine]	100 to 1000
COc1nc(C)c(Cn2cncn2)cc1-c1cccc(Cl)c1 [Example 112, 3-(3-Chlorophenyl)-2-methoxy-6-methyl-5-(1H-1,2,4-triazol-1-ylmethyl)pyridine]	100 to 1000
COc1ncc(Cc2ccc(C(N)=O)cc2)nc1-c1cccc(Cl)c1 [Example 113, 4-{[6-(3-Chlorophenyl)-5-methoxypyrazin-2-yl]methyl}benzamide]	100 to 1000
NC(=O)c1ccc(Cc2cnc(OC(F)F)c(-c3cccc(Cl)c3)c2)cn1 [Example 114, 5-{[5-(3-Chlorophenyl)-6-(difluoromethoxy)pyridin-3-yl]methyl}pyridine-2-carboxamide]	100 to 1000

SMILES	EC50 [nM]
COc1cccc(-c2cc(Cc3cnc(C(N)=O)nc3)cnc2OC(F)F)c1 [Example 115, 5-{[6-(Difluoromethoxy)-5-(3-methoxyphenyl)pyridin-3-yl]methyl}pyrimidine-2-carboxamide]	100 to 1000
COc1ncc(Cc2ccc(C(N)=O)nc2)cc1-c1cccc(Cl)c1 [Example 116, 5-{[5-(3-Chlorophenyl)-6-methoxypyridin-3-yl]methyl}pyridine-2-carboxamide]	100 to 1000
NC(=O)c1ncc(Cc2cnc(OC(F)F)c(-c3cccc(Cl)c3)c2)cn1 [Example 117, 5-{[5-(3-Chlorophenyl)-6-(difluoromethoxy)pyridin-3-yl]methyl}pyrimidine-2-carboxamide]	100 to 1000
COc1ncc(Cc2cnc(C(N)=O)nc2)cc1-c1cccc(F)c1 [Example 118, 5-{[5-(3-Fluorophenyl)-6-methoxypyridin-3-yl]methyl}pyrimidine-2-carboxamide]	100 to 1000
CCOc1ncc(Cc2cnc(C(N)=O)nc2)cc1-c1cccc(OC(F)F)c1 [Example 119, 5-({5-[3-(Difluoromethoxy)phenyl]-6-ethoxypyridin-3-yl}methyl)pyrimidine-2-carboxamide]	< 100
COc1ncc(Cc2cnc(C(N)=O)nc2)cc1-c1ccnc(OC(F)F)c1 [Example 120, 5-({5-[2-(Difluoromethoxy)pyridin-4-yl]-6-methoxypyridin-3-yl}methyl)pyrimidine-2-carboxamide]	100 to 1000
COc1ncc(Cc2cnc(C(N)=O)nc2)cc1-c1cccc(OC(F)F)c1 [Example 121, 5-({5-[3-(Difluoromethoxy)phenyl]-6-methoxypyridin-3-yl}methyl)pyrimidine-2-carboxamide]	100 to 1000
CCOc1ncc(Cc2cnc(C(N)=O)nc2)cc1-c1ccnc(OC(F)F)c1 [Example 122, 5-({5-[2-(Difluoromethoxy)pyridin-4-yl]-6-ethoxypyridin-3-yl}methyl)pyrimidine-2-carboxamide]	< 100
COc1ncc(Cc2cnc(C(N)=O)nc2)nc1-c1cccc(Cl)c1 [Example 123, 5-{[6-(3-Chlorophenyl)-5-methoxypyrazin-2-yl]methyl}pyrimidine-2-carboxamide]	< 100
CCOc1ncc(Cc2ccc(C(N)=O)nc2)nc1-c1cccc(OC(F)F)c1 [Example 124, 5-({6-[3-(Difluoromethoxy)phenyl]-5-ethoxypyrazin-2-yl}methyl)pyridine-2-carboxamide]	< 100
COc1ncc(Cc2cnc(C(N)=O)nc2)nc1-c1cccc(OC(F)F)c1 [Example 125, 5-({6-[3-(Difluoromethoxy)phenyl]-5-methoxypyrazin-2-yl}methyl)pyrimidine-2-carboxamide]	< 100
CCOc1ncc(Cc2cnc(C(N)=O)nc2)nc1-c1cccc(Cl)c1 [Example 126, 5-{[6-(3-Chlorophenyl)-5-ethoxypyrazin-2-yl]methyl}pyrimidine-2-carboxamide]	< 100
COC(=O)c1ncn(Cc2cnc(OC)c(-c3cccc(Cl)c3)n2)n1 [Example 127, Methyl 1-{[6-(3-chlorophenyl)-5-methoxypyrazin-2-yl]methyl}-1H-1,2,4-triazole-3-carboxylate]	1000 to 10000
FC(F)Oc1ncc(Cn2cnc(C3CC3)n2)cc1-c1cccc(Cl)c1 [Example 128, 3-(3-Chlorophenyl)-5-[(3-cyclopropyl-1H-1,2,4-triazol-1-yl)methyl]-2-(difluoromethoxy)pyridine]	100 to 1000
COc1ncc(Cn2cncn2)cc1-c1cccc(F)c1 [Example 129, 3-(3-Fluorophenyl)-2-methoxy-5-(1H-1,2,4-triazol-1-ylmethyl)pyridine]	100 to 1000
COc1ncc(Cn2cncn2)nc1-c1cccc(Cl)c1 [Example 130, 3-(3-Chlorophenyl)-2-methoxy-5-(1H-1,2,4-triazol-1-ylmethyl)pyrazine]	100 to 1000
FC(F)Oc1ncc(Cn2cncn2)cc1-c1cccc(Cl)c1 [Example 131, 3-(3-Chlorophenyl)-2-(difluoromethoxy)-5-(1H-1,2,4-triazol-1-ylmethyl)pyridine]	< 100
COc1ncc(Cn2cnc(C)n2)nc1-c1cccc(Cl)c1 [Example 132, 3-(3-Chlorophenyl)-2-methoxy-5-[(3-methyl-1H-1,2,4-triazol-1-yl)methyl]pyrazine]	100 to 1000
COc1ncc(Cn2cnc(C3CC3)n2)nc1-c1cccc(Cl)c1 [Example 133, 3-(3-Chlorophenyl)-5-[(3-cyclopropyl-1H-1,2,4-triazol-1-yl)methyl]-2-methoxypyrazine]	1000 to 10000
COc1ncc(Cn2cncn2)cc1-c1cccc(Cl)c1 [Example 134, 3-(3-Chlorophenyl)-2-methoxy-5-(1H-1,2,4-triazol-1-ylmethyl)pyridine]	< 100
CC(C)Oc1ncc(Cn2cncn2)cc1-c1cccc(Cl)c1 [Example 135, 3-(3-Chlorophenyl)-2-(propan-2-yloxy)-5-(1H-1,2,4-triazol-1-ylmethyl)pyridine]	1000 to 10000
COc1ncc(Cn2cncn2)cc1-c1cccc(C#N)c1 [Example 136, 3-[2-Methoxy-5-(1H-1,2,4-triazol-1-ylmethyl)pyridin-3-yl]benzonitrile]	100 to 1000
